Results on 11 compounds are retold here after article PMC5954004, “19th European Symposium on Radiopharmacy and Radiopharmaceuticals (ESRR’18)” (EJNMMI Radiopharmacy and Chemistry, 2018).

In series [1] the test system is Raji cells expressing CD20. Nature of the series: binding of 68Ga-Tz-conjugate after binding of Rtx-TCO to Raji cells. The class given is cell-based.
The conditions of series [2]: 68Ga-labelled conjugates.
Procedure: (§3) Tz functionalization was performed by reaction with NHS-PEG5-Tz with FSC (resulting in the trimer FSC-(PEG5-Tz)3), MAFC (resulting in the dimer MAFC-(PEG5-Tz)2) and DAFC (resulting in the monomer DAFC-(PEG5-Tz), starting from its ferric complex with final iron removal by EDTA, HPLC purification and characterization by MS. ^68Ga-labelling was performed in acetate buffer (pH 4.5) at high s.a., resulting complexes were characterized by HPLC, protein binding, log P and stability was assessed. Rituximab was functionalized with NHS-TCO according to published procedures (Rtx-TCO). Binding of Tz-conjugates to TCO was assessed on Rtx-TCO immobilized 96well plates as well as after binding of Rtx-TCO vs Rtx to Raji cells expressing CD20 followed by incubation with 68Ga-Tz-conjugate. Biodistribution was studied in normal balb-c mice.
For series [3] the following is noted: 68Ga-labelled conjugates. The source holds these as a separate data set.
Procedure: as §3
The conditions of series [4]: 1h p.i., normal balb-c mice.
Procedure: as §3
The conditions of series [5]: 37°C, 24h incubation. The procedure: Methods: 177Lu-DOTATATE (Lutathera®) was diluted to 1/5th in saline, 5% Glucose, Bicarbonate 8.4% solution, Ringer-Lactate, octreotide solution, octreotide LAR or incubated at 37°C in plasma or plasma enriched with 10% de octreotide. Radiochemical purity (RPC) was determined by ITLC-SG in 0.1mol/L sodium citrate pH=3. […] RPC was also determined using C18 Sep-Pack-Plus cartridge (Waters, USA). The free radionuclide was eluted with 5mL of 0.1mol/L acetate buffer pH=3 and the labelled peptide with 5mL of methanol, and hydroxylated Lu-177 remained inside the cartridge. Mixtures were then analyzed immediately, 30min and 24h after dilution. […] Binary comparisons to the undiluted product were made by a Mann-and-Whitney U test and stability over time checked by a 1-way ANOVA (p < 5%).

A further series has as its target T1, mGluR1 (Mus musculus, UniProt P97772).
T1 construct: PET probe for imaging the kinetics of mGluR1 in mouse brain; from tissue; host or cells: brain of living WT Q175DN mice
Nature of the series: [11C]ITDM microPET in mouse brain. Format: in vivo. The procedure: Methods: We validated [^11C]ITDM as a PET probe for imaging the kinetics of mGluR1 in mouse brain. [^11C]ITDM was prepared by modification of a previously described method^1 in a module (Comecer Netherlands) adapted for automated production. In a cooled solution containing the arylstannane precursor (1.9mg), K2CO3 (2.1mg), CuCl2 (1.5mg), Pd2(dba)3 (1.3mg) and P(o-tol)3 (1.7mg) in DMF purged with N2, [^11C]MeI was bubbled, followed by reaction at 65°C for 5min. The mixture was purified by reverse phase semi-preparative HPLC (tR=8.5min), using MeCN:H2O:Et3N (6:4:0.01, V/V/V) as mobile phase (2.7mL/min) followed by sterile formulation into ethanolic saline containing 0.5% ascorbic acid, using a C18 Sep-Pak cartridge. For in vivo evaluation, WT Q175DN mice (n = 9; 11 months old) were intravenously (i.v.) injected with [^11C]ITDM (5.69±2.4MBq; injected mass=0.87±0.33μg/kg) and dynamically scanned for 90min (Siemens Inveon μPET/CT). To validate target engagement, blocking and displacement studies with mGluR1 antagonist YM-202074 (20mg/kg; i.v.; 2min before and 30min after tracer injection, respectively) were performed. Total volume of distribution (VT) (from 2TCM) was calculated noninvasively using an image-derived input function (IDIF) in several brain regions.

Another series deals with T2, GABAB receptors (Mus musculus, UniProt Q9WV18).
T2 construct: from tissue; host or cells: brain of CD-1 male mice (in vivo / ex vivo)
T2 sequence (Q9WV18 20-960): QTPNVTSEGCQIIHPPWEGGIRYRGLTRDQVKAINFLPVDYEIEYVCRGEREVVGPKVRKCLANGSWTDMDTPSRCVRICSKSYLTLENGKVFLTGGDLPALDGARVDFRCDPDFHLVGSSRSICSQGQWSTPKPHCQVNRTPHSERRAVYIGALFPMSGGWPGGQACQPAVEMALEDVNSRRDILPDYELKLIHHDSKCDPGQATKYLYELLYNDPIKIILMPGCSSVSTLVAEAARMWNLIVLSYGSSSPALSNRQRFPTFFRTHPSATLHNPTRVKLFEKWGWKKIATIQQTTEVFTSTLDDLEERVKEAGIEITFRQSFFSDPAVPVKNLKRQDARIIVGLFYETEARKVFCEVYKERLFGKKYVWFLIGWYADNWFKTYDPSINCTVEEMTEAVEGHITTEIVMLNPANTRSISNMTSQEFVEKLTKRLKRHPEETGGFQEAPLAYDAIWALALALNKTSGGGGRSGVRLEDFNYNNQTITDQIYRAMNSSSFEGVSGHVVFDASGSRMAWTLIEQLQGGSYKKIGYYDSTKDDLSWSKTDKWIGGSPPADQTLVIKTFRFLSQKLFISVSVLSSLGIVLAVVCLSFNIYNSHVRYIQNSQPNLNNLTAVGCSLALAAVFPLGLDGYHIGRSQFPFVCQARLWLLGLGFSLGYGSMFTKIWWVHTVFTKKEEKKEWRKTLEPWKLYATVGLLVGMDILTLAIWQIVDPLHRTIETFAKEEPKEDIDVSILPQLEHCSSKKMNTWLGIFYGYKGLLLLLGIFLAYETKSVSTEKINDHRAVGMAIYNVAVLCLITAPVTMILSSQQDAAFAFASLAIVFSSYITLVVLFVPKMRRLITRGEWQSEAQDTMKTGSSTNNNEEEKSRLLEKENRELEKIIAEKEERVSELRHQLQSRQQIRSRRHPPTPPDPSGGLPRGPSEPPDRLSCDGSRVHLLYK
T2 sequence (Q80T41 41-940 partner): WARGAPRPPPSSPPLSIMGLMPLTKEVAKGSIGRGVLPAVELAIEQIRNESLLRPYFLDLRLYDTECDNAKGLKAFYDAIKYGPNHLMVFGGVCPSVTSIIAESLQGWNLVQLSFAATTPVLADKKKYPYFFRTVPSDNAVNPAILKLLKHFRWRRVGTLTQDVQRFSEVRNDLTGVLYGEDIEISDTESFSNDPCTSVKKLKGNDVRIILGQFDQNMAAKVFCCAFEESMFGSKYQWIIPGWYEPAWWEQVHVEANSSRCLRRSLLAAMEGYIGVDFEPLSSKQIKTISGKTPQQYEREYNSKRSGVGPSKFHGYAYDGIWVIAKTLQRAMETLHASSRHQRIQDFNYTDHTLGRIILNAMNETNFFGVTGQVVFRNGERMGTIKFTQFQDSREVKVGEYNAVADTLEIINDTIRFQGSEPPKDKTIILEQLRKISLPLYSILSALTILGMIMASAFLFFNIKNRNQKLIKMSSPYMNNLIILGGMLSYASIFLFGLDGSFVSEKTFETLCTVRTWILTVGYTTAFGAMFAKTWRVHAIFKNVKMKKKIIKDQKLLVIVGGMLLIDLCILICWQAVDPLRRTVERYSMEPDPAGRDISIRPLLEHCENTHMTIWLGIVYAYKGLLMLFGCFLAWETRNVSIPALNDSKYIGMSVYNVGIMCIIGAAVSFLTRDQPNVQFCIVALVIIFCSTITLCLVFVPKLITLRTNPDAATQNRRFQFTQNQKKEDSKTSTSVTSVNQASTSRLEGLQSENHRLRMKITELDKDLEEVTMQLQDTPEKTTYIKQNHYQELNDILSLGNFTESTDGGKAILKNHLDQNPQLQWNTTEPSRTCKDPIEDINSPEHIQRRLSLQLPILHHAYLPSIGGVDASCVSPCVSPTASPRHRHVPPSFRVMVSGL
Format: in vivo, mice. Here is the method: Methods: New GABAB agonists, fluoropyridylmethoxy analogues of baclofen, were synthesized. The in vitro potency of these new compounds was determined commercially. […] The regional brain distribution of the radiolabeled [^18F]1 was studied in CD-1 male mice.

The conditions of series [6]: after 10 min, BALB/c mice in vivo. The procedure: (§1) Methods: The new MG analogue DOTA-MGS5 was designed based on a combination of the substitutions applied in peptide derivatives previously developed by our group (1). The in vitro and in vivo characterisation after radiolabelling with In-111 and Lu-177 included stability analyses of the radioligands incubated in rat tissue homogenates and after injection into BALB/c mice. Receptor interaction in terms of receptor affinity and cell uptake was analysed using A431 human epidermoid carcinoma cells transfected with human CCK2R (A431-CCK2R) and mock-transfected cells (A431-mock). The targeting potential was evaluated by small animal dual modality single photon emission computed tomography (NanoSPECT/CT) as well as ex vivo biodistribution studies in tumour bearing BALB/c nude mice up to 4 h after injection.

A further series is described as follows: in vivo. To be noted: BALB/c nude, mouse, total radioactivity. Here is the method:
as §1

A short description of series [7]: plutonium decorporation in rats. Format: in vivo. To be noted: delayed administration, of the levels in untreated control rats. The procedure: Methods: Unilamellar liposomes (DSPC/Cholesterol/DSPE 69:30:1) were used to encapsulate DTPA (25mM). For decorporation experiments, rats were first contaminated by intravenous administration of the soluble citrate form of ^238Pu (4 to 10.3 kBq), before injection of DTPA, marketed free form or encapsulated in liposomes (2.25 at 6.74 μmol/kg). Treatment schedules started at one hour (prompt treatment) or at seven days (delayed treatment) after contamination and were given as a single injection or repeated injections. A prophylactic single treatment was also tested given at three days before contamination. Organs of interest (liver, bone and spleen mainly) and excreta were collected at different times for measurement of Pu alpha activity.

The target of series [8] is gastrin-releasing peptide receptor (GRPr) (human (endogenous in PC-3, T47D, MDA-MB-231)) (UniProt P30550).
Sequence of gastrin-releasing peptide receptor (GRPr) (human (endogenous in PC-3, T47D, MDA-MB-231)) (P30550 whole entry, stated change not applied): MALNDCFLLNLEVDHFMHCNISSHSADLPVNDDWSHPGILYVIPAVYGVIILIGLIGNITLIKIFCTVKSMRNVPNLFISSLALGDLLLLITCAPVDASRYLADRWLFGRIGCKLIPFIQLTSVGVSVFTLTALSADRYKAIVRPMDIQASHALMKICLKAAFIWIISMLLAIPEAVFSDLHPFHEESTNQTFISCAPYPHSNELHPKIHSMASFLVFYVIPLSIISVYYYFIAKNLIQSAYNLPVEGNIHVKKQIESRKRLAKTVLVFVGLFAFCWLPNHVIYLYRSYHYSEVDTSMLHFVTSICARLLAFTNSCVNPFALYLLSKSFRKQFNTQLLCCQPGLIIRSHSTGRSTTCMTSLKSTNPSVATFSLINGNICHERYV
A further series deals with AsPC-1 cells. Nature of the series: clonogenic survival assay, AsPC-1. The class given is cell-based. Here is the method:
(§2) Methods: Flow cytometry: EGFR density was measured on AsPC-1, PANC-1, MiaPACA-2, and Capan-1 cell lines. Cells were incubated with panitumumab for 60 min, then with Alexa Fluor 647 anti-human IgG immunoconjugates for 30 min at 4°C, then run on a flow cytometer. Clonogenic survival assays: Cells were treated with γ-radiation (0-8Gy) or ^177Lu-RIT (0-3MBq/72nM) then seeded in into 6-well plates and allowed to grow at 37°C, 5% CO2, for 14 days. Then colonies were fixed/stained and counted. Subcellular fractionation: Cells were treated with ^177Lu-RIT (1MBq/72nM) for 1, 3, 4, and 24 hours. Radioactivity associated with cell surface, cytoplasm, and nucleus was separated then measured in a γ-counter.

For another series, the system named is PANC-1 cells. Nature of the series: clonogenic survival assay, PANC-1. The class given is cell-based. Here is the method: as §2
Another series relates to MIAPaca-2 cells. In words: clonogenic survival assay, MIAPaca-2. Format: cell-based. The procedure:
as §2

The test system of a further series is Capan-1 cells. Nature of the series: clonogenic survival assay, Capan-1. The class given is cell-based. The procedure: as §2
Setting [9] is: plasma enriched with octreotide.
Setting [10] is: 2TCM, image-derived input function, WT Q175DN mice n = 9.

Where two headings read alike, the source gives them in different places.

T1 sequence (P97772 21-1199): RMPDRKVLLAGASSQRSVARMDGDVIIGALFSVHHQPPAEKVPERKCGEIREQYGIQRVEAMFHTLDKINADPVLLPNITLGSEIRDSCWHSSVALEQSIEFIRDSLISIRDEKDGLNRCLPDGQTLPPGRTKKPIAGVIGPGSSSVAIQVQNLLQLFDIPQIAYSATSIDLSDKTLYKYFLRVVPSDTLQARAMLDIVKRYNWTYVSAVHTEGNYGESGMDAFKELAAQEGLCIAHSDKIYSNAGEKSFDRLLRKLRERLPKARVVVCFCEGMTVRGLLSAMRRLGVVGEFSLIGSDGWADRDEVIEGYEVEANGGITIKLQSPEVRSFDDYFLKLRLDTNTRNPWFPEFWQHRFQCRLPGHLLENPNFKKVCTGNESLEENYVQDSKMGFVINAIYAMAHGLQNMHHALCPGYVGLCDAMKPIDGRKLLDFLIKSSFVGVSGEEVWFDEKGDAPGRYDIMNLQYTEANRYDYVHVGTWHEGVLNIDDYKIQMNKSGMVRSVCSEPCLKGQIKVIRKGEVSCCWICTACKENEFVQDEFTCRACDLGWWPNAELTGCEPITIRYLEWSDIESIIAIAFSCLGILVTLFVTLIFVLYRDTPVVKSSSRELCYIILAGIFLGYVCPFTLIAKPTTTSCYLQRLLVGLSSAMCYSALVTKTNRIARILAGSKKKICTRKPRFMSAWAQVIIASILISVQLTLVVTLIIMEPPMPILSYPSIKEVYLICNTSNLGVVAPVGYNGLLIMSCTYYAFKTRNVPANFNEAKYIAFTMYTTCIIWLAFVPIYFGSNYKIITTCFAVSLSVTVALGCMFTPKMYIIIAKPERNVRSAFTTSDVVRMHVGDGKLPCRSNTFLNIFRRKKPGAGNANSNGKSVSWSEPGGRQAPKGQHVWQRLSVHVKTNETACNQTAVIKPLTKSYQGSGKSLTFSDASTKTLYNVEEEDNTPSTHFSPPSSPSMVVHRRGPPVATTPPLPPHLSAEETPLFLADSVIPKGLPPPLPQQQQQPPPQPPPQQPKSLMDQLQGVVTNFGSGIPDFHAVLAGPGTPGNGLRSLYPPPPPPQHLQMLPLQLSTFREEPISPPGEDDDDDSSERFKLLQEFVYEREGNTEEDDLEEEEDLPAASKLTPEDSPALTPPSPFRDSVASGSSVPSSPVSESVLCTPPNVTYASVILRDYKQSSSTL

In the case of `CC(=O)NC1CCCN(O)C(=O)/C=C(/C)CCOC(=O)C(NC(=O)CCOCCOCCOCCOCCOCCC(=O)NCc2ccc(-c3nncnn3)cc2)CCCN(O)C(=O)/C=C(/C)CCOC(=O)C(NC(C)=O)CCCN(O)C(=O)/C=C(/C)CCOC1=O` (centres unmarked) (68Ga complex, metal not drawn) [DAFC-(PEG5Tz)], the “binding after binding of Rtx-TCO to CD20 expressing cells” value (from here on “binding after binding of Rtx-TCO”) in series [1] is on record as 4.01 ± 0.24%. In series [2], the protein binding result is “exceeded 50%”. The log p result in series [3] is “below -1”. The same compound had a blood levels in series [4] of 1 %ID/g.
Take `C/C1=C/C(=O)N(O)CCCC(NC(=O)CCOCCOCCOCCOCCOCCC(=O)NCc2ccc(-c3nncnn3)cc2)C(=O)OCC/C(C)=C\C(=O)N(O)CCCC(NC(=O)CCOCCOCCOCCOCCOCCC(=O)NCc2ccc(-c3nncnn3)cc2)C(=O)OCC/C(C)=C\C(=O)N(O)CCCC(NC(=O)CCOCCOCCOCCOCCOCCC(=O)NCc2ccc(-c3nncnn3)cc2)C(=O)OCC1` (centres unmarked) (68Ga complex, metal not drawn) [FSC-(PEG5Tz)3]: the “binding after binding of Rtx-TCO” value in [1] came to 15.9 ± 0.88%. Moreover, the protein binding entry in [2] is given as “exceeded 50%”. The log p result in [3] was “below -1”. Also, the blood levels in series [4] was 3 %ID/g.
Regarding `CC(=O)NC1CCCN(O)C(=O)/C=C(/C)CCOC(=O)C(NC(=O)CCOCCOCCOCCOCCOCCC(=O)NCc2ccc(-c3nncnn3)cc2)CCCN(O)C(=O)/C=C(/C)CCOC(=O)C(NC(=O)CCOCCOCCOCCOCCOCCC(=O)NCc2ccc(-c3nncnn3)cc2)CCCN(O)C(=O)/C=C(/C)CCOC1=O` (centres unmarked) (68Ga complex, metal not drawn) [MAFC-(PEG5Tz)2], the “binding after binding of Rtx-TCO” value in [1] came to 7.75 ± 0.56%. Besides, the protein binding entry in series [2] was “exceeded 50%”. Further, in series [3], the log p result is on record as “below -1”.
As to `C[C@@H](O)[C@H](NC(=O)[C@@H]1CSSC[C@H](NC(=O)[C@@H](Cc2ccccc2)NC(=O)CN2CCN(CC(=O)O)CCN(CC(=O)O)CCN(CC(=O)O)CC2)C(=O)N[C@@H](Cc2ccc(O)cc2)C(=O)N[C@H](Cc2c[nH]c3ccccc23)C(=O)N[C@@H](CCCCN)C(=O)N[C@@H]([C@@H](C)O)C(=O)N1)C(=O)O` [177Lu-DOTATATE, metal not drawn], the “hydroxylated Lutetium” value was 6.3%±1.8% in [5] (setting [9]) and 4.9%±1.3% in series [5] (plasma, mean±SD n = 3-4). In addition, the unbound lutetium in series [5] (setting [9]) is 4.8%±0.8%; in series [5] (plasma, mean±SD n = 3-4), 4.2%±0.6%.
As to `COCCN(C)Cc1ccc2c(c1)nc1sc(C(=O)N(C)C3CCCCC3)cn12` [YM-202074], the “blockade and displacement of [11C]ITDM” value on mGluR1 (20mg/kg i.v., 2min before and 30min after tracer injection, all investigated brain regions) was “significant blockade and displacement”.
At mGluR1 (setting [10]), `CC(C)Nc1cc(-c2csc(N(C)C(=O)c3ccc([11CH3])cc3)n2)ncn1` [[^11C]ITDM] yielded a VT cerebellum of 9.1±2.1 mL/cm^3 and a VT thalamus of 8.2±2.1 mL/cm^3.
Consider `NC[C@H](CC(=O)O)c1ccc(Cl)c(OCc2ccnc(F)c2)c1` [[^18F]1, (R)-4-amino-3-(4-chloro-3-((2-fluoropyridin-4-yl)methoxy)phenyl) butanoic acid], for which the mouse brain uptake on GABAB receptors (CD-1 male mice) is listed as 1 % ID/g tissue. Also, the “inhibition of accumulation in the mouse brain” value on GABAB receptors (pre-injection of a selective GABAB agonist) came out at 35%.
With `CCCC[C@@H](C(=O)N[C@@H](CC(=O)O)C(=O)N[C@@H](Cc1cccc2ccccc12)C(N)=O)N(C)C(=O)[C@H](Cc1c[nH]c2ccccc12)NC(=O)CNC(=O)[C@H](Cc1ccc(O)cc1)NC(=O)[C@H](C)NC(=O)[C@@H](CCC(=O)O)NC(=O)CN1CCN(CC(=O)O)CCN(CC(=O)O)CCN(CC(=O)O)CC1` [^177Lu-DOTA-MGS5, metal not drawn], the “stability in blood, intact peptide” value in series [6] is listed as > 80%. Moreover, the tissue to tissue ratio at 4 h in “in vivo” (A431-CCK2R tumour / kidneys) was > 6; in “in vivo” (A431-CCK2R tumour / stomach), > 3.
For the compound `O=C(O)CN(CCN(CC(=O)O)CC(=O)O)CCN(CC(=O)O)CC(=O)O` [free DTPA], in [7], the “decrease of hepatic Pu level” value came out at 19%, the “decrease of skeletal Pu level” value is recorded as 12% and the “decrease of splenic Pu level” value is reported as 24%.
As to “GRPr antagonist H2N-4-amino-1-carboxymethyl piperidine-[(R)-Phe^6, Sta^13]BN(6-14) linked to the chelator HBED-CC, labelled with 68Ga (peptide)”, in series [8], the cell bound, % given radioactivity (MDA-MB-231+ cells, 1 h) (% given radioactivity) came out at 3; the cell bound, % given radioactivity (PC-3+ cells, 1 h) (% given radioactivity) is 30; the cell bound, % given radioactivity (T47D+ cells, 1 h) (% given radioactivity) came to 9.
For the compound “^177Lu-RIT: panitumumab modified with a NOTA chelator and radiolabeled with 177Lu”, the “D10 (clonogenic survival reduced to 10%)” value in the series on AsPC-1 cells (AsPc-1) was found to be 3.1 MBq; with PANC-1 cells (PANC-1), 1.1 MBq; in the series on MIAPaca-2 cells (MIAPaca-2), 6.0 MBq; in the series on Capan-1 cells (Capan-1), 1 MBq. Moreover, the RBE came out at 0.2 in the series on AsPC-1 cells (AsPc-1, compared to γ-radiation); 1.0 with PANC-1 cells (PANC-1, compared to γ-radiation); 0.2 in the series on MIAPaca-2 cells (MIAPaca-2, compared to γ-radiation); 0.3 with Capan-1 cells (Capan-1, compared to γ-radiation). For the same compound, the “D10 after 177Lu-RIT” value in the series with AsPC-1 cells (AsPc-1, microdosimetry) is recorded as 16.9 Gy; in the series on PANC-1 cells (PANC-1, microdosimetry), 5.7 Gy; in the series with MIAPaca-2 cells (MIAPaca-2, microdosimetry), 23.3 Gy; with Capan-1 cells (Capan-1, microdosimetry) it was 8.2 Gy.
